In patent publication US12098145B2 (Libra Therapeutics, Inc., priority 2022, dated 2024):

target: T1, TRPML1 (Homo sapiens, UniProt Q9GZU1); experiment: Cellular TRPML1 assay (FLIPR, GCaMP6f calcium read-out); type: cell-based; settings: HEKT-REx/GCaMP6f/TRPML1 cells, FLIPR TETRA, kinetic response over 300 seconds; read-out: TRPML1 FLIPR pEC50 (converted)
T1 construct: expressed in transfected cells; host or cells: HEK T-REx cells stably expressing GCaMP6f and TRPML1
Description: Example A: Cellular TRPML1 Assay
The final clone for the TRPML1 assay is HEKT-REx/GCaMP6f/TRPML1. GCaMP6f is a genetically encoded calcium indicator that is stably expressed in this cell line and used as a fluorescent read-out.
Experiments were performed in 384 MTP format. Cells are seeded at 15000 cells/well in 20 μl/well of Optimem+0.5% FBS without selection antibiotics. Twenty-four hours later, cells are assayed for the response to various compounds using the Ca^2+ sensitive GCaMP6f protein stably expressed in the cells as readout.
The experiment was performed in a 384-well format according to the following procedures: • 24 h after seeding, the cells were pre-incubated at room temperature for about 10 min. • Started the experiment at the FLIPR^TETRA by injecting 10 μL/w of 3× concentrated test compounds and controls in Ca^2+ free Tyrode's buffer. Monitored the kinetic response over a period of 300 seconds. • Final DMSO concentration: 0.5%
Data from FLIPR^TETRA measurements were analyzed with the Genedata Screener© software.

T1 sequence (Q9GZU1 whole entry): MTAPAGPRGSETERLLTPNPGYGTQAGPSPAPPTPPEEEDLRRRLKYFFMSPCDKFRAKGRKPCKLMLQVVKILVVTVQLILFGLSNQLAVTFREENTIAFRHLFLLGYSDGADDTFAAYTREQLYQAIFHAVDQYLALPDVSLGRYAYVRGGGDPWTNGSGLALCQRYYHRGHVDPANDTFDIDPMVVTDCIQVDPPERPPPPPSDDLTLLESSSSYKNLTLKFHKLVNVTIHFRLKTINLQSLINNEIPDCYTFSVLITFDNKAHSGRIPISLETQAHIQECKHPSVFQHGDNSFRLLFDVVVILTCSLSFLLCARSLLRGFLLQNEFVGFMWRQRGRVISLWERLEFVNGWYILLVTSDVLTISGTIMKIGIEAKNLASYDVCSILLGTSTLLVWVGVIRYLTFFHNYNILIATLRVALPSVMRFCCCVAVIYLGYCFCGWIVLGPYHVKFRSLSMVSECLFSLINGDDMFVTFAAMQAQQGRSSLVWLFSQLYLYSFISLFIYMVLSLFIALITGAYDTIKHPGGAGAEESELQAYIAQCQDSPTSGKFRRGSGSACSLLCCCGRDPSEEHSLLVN

`CC1(C)CN(c2nc(C(=O)Nc3cc(F)c(OC4CCCOC4)c(F)c3)c(CC(F)(F)F)o2)C1` (racemic) [Example 72, N-(3,5-difluoro-4-((tetrahydro-2H-pyran-3-yl)oxy)phenyl)-2-(3,3-dimethylazetidin-1-yl)-5-(2,2,2-trifluoroethyl)oxazole-4-carboxamide] and `CC1(C)CN(c2nc(C(=O)Nc3cc(F)c(OC4CC5C[C@H]5C4)c(F)c3)c(CC(F)(F)F)o2)C1` (stereo partly drawn) [Example 37, N-(4-{cis-bicyclo[3.1.0]hexan-3-yloxy}-3,5-difluorophenyl)-2-(3,3-dimethylazetidin-1-yl)-5-(2,2,2-trifluoroethyl)oxazole-4-carboxamide] fall in the same range of EC50: 10 to 1000 nM for the first, 10 to 1000 nM for the second.

Compared with `O=C(Nc1ccc(OC2CCCC2(F)F)c(F)c1)c1nc(N2Cc3ccccc3C2)oc1CC(F)(F)F` (stereo not shown) [Example 1, N-{4-[(2,2-difluorocyclopentyl)oxy]-3-fluorophenyl}-2-(2,3-dihydro-1H-isoindol-2-yl)-5-(2,2,2-trifluoroethyl)-1,3-oxazole-4-carboxamide], `O=C(Nc1ccc(OC2CCCC2(F)F)c(F)c1)c1nc(N2CCc3ccccc32)oc1CC(F)(F)F` (stereo not shown) [Example 5, N-(4-((2,2-difluorocyclopentyl)oxy)-3-fluorophenyl)-2-(indolin-1-yl)-5-(2,2,2-trifluoroethyl)oxazole-4-carboxamide] is lower in EC50: 10000 to 100000 nM for the first, 1000 to 10000 nM for the second.

`N#CC1CN(c2nc(C(=O)Nc3ccc(OC4CCCC4(F)F)c(F)c3)c(CC(F)(F)F)o2)C1` (stereo not shown) [Example 2, 2-(3-cyanoazetidin-1-yl)-N-{4-[(2,2-difluorocyclopentyl)oxy]-3-fluorophenyl}-5-(2,2,2-trifluoroethyl)-1,3-oxazole-4-carboxamide] and `COC1CN(c2nc(C(=O)Nc3ccc(OC4CCCC4(F)F)c(F)c3)c(CC(F)(F)F)o2)C1` (stereo not shown) [Example 8, N-(4-((2,2-difluorocyclopentyl)oxy)-3-fluorophenyl)-2-(3-methoxyazetidin-1-yl)-5-(2,2,2-trifluoroethyl)oxazole-4-carboxamide] fall in the same range of EC50: 1000 to 10000 nM for the first, 1000 to 10000 nM for the second.

`COCC1CCN(c2nc(C(=O)Nc3ccc(OC4CCCC4(F)F)c(F)c3)c(CC(F)(F)F)o2)C1` (stereo not shown) [Example 7, N-(4-((2,2-difluorocyclopentyl)oxy)-3-fluorophenyl)-2-(3-(methoxymethyl)pyrrolidin-1-yl)-5-(2,2,2-trifluoroethyl)oxazole-4-carboxamide] and `CC(C)OC1CN(c2nc(C(=O)Nc3ccc(OC4CCCC4(F)F)c(F)c3)c(CC(F)(F)F)o2)C1` (stereo not shown) [Example 24, N-{4-[(2,2-difluorocyclopentyl)oxy]-3-fluorophenyl}-2-[3-(propan-2-yloxy)azetidin-1-yl]-5-(2,2,2-trifluoroethyl)oxazole-4-carboxamide] fall in the same range of EC50: 1000 to 10000 nM for the first, 1000 to 10000 nM for the second.

Compared with `O=C(Nc1ccc(OC2CCCC2(F)F)c(F)c1)c1nc(N2C3CCC2CC3)oc1CC(F)(F)F` (stereo not shown) [Example 9, 2-{7-azabicyclo[2.2.1]heptan-7-yl}-N-{4-[(2,2-difluorocyclopentyl)oxy]-3-fluorophenyl}-5-(2,2,2-trifluoroethyl)oxazole-4-carboxamide], `O=C(Nc1ccc(OC2CCCC2(F)F)c(F)c1)c1nc(N2CC3CCCC3C2)oc1CC(F)(F)F` (stereo not shown) [Example 23, N-(4-((2,2-difluorocyclopentyl)oxy)-3-fluorophenyl)-2-(hexahydrocyclopenta[c]pyrrol-2(1H)-yl)-5-(2,2,2-trifluoroethyl)oxazole-4-carboxamide] is lower in EC50: 1000 to 10000 nM for the first, 10 to 1000 nM for the second.

First: O=C(Nc1ccc(OC2CCCC2(F)F)c(F)c1)c1nc(N2CC3C(C2)C3(F)F)oc1CC(F)(F)F (stereo not shown) [Example 10, 2-{6,6-difluoro-3-azabicyclo[3.1.0]hexan-3-yl}-N-{4-[(2,2-difluorocyclopentyl)oxy]-3-fluorophenyl}-5-(2,2,2-trifluoroethyl)oxazole-4-carboxamide]
Second: O=C(Nc1ccc(OC2CCCC2(F)F)c(F)c1)c1nc(N2CC(F)(F)C2)oc1CC(F)(F)F (stereo not shown) [Example 16, 2-(3,3-difluoroazetidin-1-yl)-N-{4-[(2,2-difluorocyclopentyl)oxy]-3-fluorophenyl}-5-(2,2,2-trifluoroethyl)oxazole-4-carboxamide]
The EC50 of the first is higher: 1000 to 10000 nM for the first, 10 to 1000 nM for the second.

`O=C(Nc1ccc(OC2CCCC2(F)F)c(F)c1)c1nc(N2CCCC23CC3)oc1CC(F)(F)F` (stereo not shown) [Example 11, N-(4-((2,2-difluorocyclopentyl)oxy)-3-fluorophenyl)-2-(4-azaspiro[2.4]heptan-4-yl)-5-(2,2,2-trifluoroethyl)oxazole-4-carboxamide] and `O=C(Nc1ccc(OC2CCCC2(F)F)c(F)c1)c1nc(N2CC3(CCOCC3)C2)oc1CC(F)(F)F` (stereo not shown) [Example 14, N-(4-((2,2-difluorocyclopentyl)oxy)-3-fluorophenyl)-2-(7-oxa-2-azaspiro[3.5]nonan-2-yl)-5-(2,2,2-trifluoroethyl)oxazole-4-carboxamide] fall in the same range of EC50: 1000 to 10000 nM for the first, 1000 to 10000 nM for the second.

Compared with `O=C(Nc1ccc(OC2CCCC2(F)F)c(F)c1)c1nc(N2CC3CCOC3C2)oc1CC(F)(F)F` (stereo not shown) [Example 12, N-(4-((2,2-difluorocyclopentyl)oxy)-3-fluorophenyl)-2-(hexahydro-5H-furo[2,3-c]pyrrol-5-yl)-5-(2,2,2-trifluoroethyl)oxazole-4-carboxamide], `O=C(Nc1ccc(OC2CCCC2(F)F)c(F)c1)c1nc(N2CC(C(F)(F)F)C2)oc1CC(F)(F)F` (stereo not shown) [Example 18, N-(4-((2,2-difluorocyclopentyl)oxy)-3-fluorophenyl)-5-(2,2,2-trifluoroethyl)-2-(3-(trifluoromethyl)azetidin-1-yl)oxazole-4-carboxamide] is lower in EC50: 1000 to 10000 nM for the first, 10 to 1000 nM for the second.

Compared with `O=C(Nc1ccc(N2CCCCC2)c(F)c1)c1nc(N2CCC3(CC2)CS(=O)(=O)C3)oc1CC(F)(F)F` [Example 25, 2-(2,2-dioxo-2-thia-7-azaspiro[3.5]nonan-7-yl)-N-[3-fluoro-4-(piperidin-1-yl)phenyl]-5-(2,2,2-trifluoroethyl) oxazole-4-carboxamide], `O=C(Nc1ccc(N2CCCCC2)c(F)c1)c1nc(N2CCC3(CC3)C2)oc1CC(F)(F)F` [Example 27, 2-{5-azaspiro[2.4]heptan-5-yl}-N-[3-fluoro-4-(piperidin-1-yl)phenyl]-5-(2,2,2-trifluoroethyl)-1,3-oxazole-4-carboxamide] is lower in EC50: 10000 to 100000 nM for the first, 1000 to 10000 nM for the second.

`O=C(Nc1ccc(N2CCCCC2)c(F)c1)c1nc(N2C[C@H]3CCO[C@H]3C2)oc1CC(F)(F)F` [Example 26, 2-[(3aR,6aR)-hexahydro-5H-furo[2,3-c]pyrrol-5-yl]-N-[3-fluoro-4-(piperidin-1-yl)phenyl]-5-(2,2,2-trifluoroethyl)oxazole-4-carboxamide] and `CC1CCCN1c1nc(C(=O)Nc2ccc(N3CCCCC3)c(F)c2)c(CC(F)(F)F)o1` (stereo not shown) [Example 29, N-(3-fluoro-4-(piperidin-1-yl)phenyl)-2-(2-methylpyrrolidin-1-yl)-5-(2,2,2-trifluoroethyl)oxazole-4-carboxamide] fall in the same range of EC50: 1000 to 10000 nM for the first, 1000 to 10000 nM for the second.

`O=C(Nc1cc(F)c(OC2CC3C[C@H]3C2)c(F)c1)c1nc(N2CC3(C2)CC(F)(F)C3)oc1CC(F)(F)F` (stereo partly drawn) [Example 34, N-(4-(cis-bicyclo[3.1.0]hexan-3-yloxy)-3,5-difluorophenyl)-2-(6,6-difluoro-2-azaspiro[3.3]heptan-2-yl)-5-(2,2,2-trifluoroethyl)oxazole-4-carboxamide] and `O=C(Nc1cc(F)c(OC2CC3C[C@H]3C2)c(F)c1)c1nc(N2CC3(CCCC3)C2)oc1CC(F)(F)F` (stereo partly drawn) [Example 41, N-(4-(cis-bicyclo[3.1.0]hexan-3-yloxy)-3,5-difluorophenyl)-2-(2-azaspiro[3.4]octan-2-yl)-5-(2,2,2-trifluoroethyl)oxazole-4-carboxamide] fall in the same range of EC50: 10 to 1000 nM for the first, 10 to 1000 nM for the second.

`O=C(Nc1cc(F)c(OC2CC3C[C@H]3C2)c(F)c1)c1nc(N2CCC3(COC3)C2)oc1CC(F)(F)F` (stereo partly drawn) [Example 35, N-(4-{cis-bicyclo[3.1.0]hexan-3-yloxy}-3,5-difluorophenyl)-2-{2-oxa-6-azaspiro[3.4]octan-6-yl}-5-(2,2,2-trifluoroethyl)oxazole-4-carboxamide] and `O=C(Nc1cc(F)c(OC2CC3C[C@H]3C2)c(F)c1)c1nc(N2CC3CCCC3C2)oc1CC(F)(F)F` (stereo partly drawn) [Example 40, N-(4-{cis-bicyclo[3.1.0]hexan-3-yloxy}-3,5-difluorophenyl)-2-{octahydrocyclopenta[c]pyrrol-2-yl}-5-(2,2,2-trifluoroethyl)oxazole-4-carboxamide] fall in the same range of EC50: 10 to 1000 nM for the first, 10 to 1000 nM for the second.

`O=C(Nc1ccc(OCC(F)(F)F)c(F)c1)c1nc(N2CCCC2)oc1CC(F)(F)F` [Example 42, N-(3-fluoro-4-(2,2,2-trifluoroethoxy)phenyl)-2-(pyrrolidin-1-yl)-5-(2,2,2-trifluoroethyl)oxazole-4-carboxamide] and `O=C(Nc1ccc(OC2CC(F)(F)C2)c(F)c1)c1nc(N2CCCC2)oc1CC(F)(F)F` [Example 44, N-[4-(3,3-difluorocyclobutoxy)-3-fluorophenyl]-2-(pyrrolidin-1-yl)-5-(2,2,2-trifluoroethyl)oxazole-4-carboxamide] fall in the same range of EC50: 1000 to 10000 nM for the first, 1000 to 10000 nM for the second.

`COC1CCC(Oc2ccc(NC(=O)c3nc(N4CCCC4)oc3CC(F)(F)F)cc2F)C1` (stereo not shown) [Example 43, N-{3-fluoro-4-[(3-methoxycyclopentyl)oxy]phenyl}-2-(pyrrolidin-1-yl)-5-(2,2,2-trifluoroethyl)oxazole-4-carboxamide] and `CC1(C)CC(Oc2ccc(NC(=O)c3nc(N4CCCC4)oc3CC(F)(F)F)cc2F)CO1` (stereo not shown) [Example 45, N-{4-[(5,5-dimethyloxolan-3-yl)oxy]-3-fluorophenyl}-2-(pyrrolidin-1-yl)-5-(2,2,2-trifluoroethyl)oxazole-4-carboxamide] fall in the same range of EC50: 1000 to 10000 nM for the first, 1000 to 10000 nM for the second.
